Results on one compound are retold here after ChEMBL document CHEMBL1150941, “The characterization and structure-activity evaluation of toxic norditerpenoid alkaloids from two Delphinium species” (J Nat Prod, 1998).

This data set is described as follows: Toxicity in iv dosed white Swiss-Webster mouse. In kind it is organism-based. The settings on record: in vivo.

Molecules are shown by their SMILES.

`CCN1C[C@]2(COC(=O)c3ccccc3N3C(=O)C[C@H](C)C3=O)CC[C@H](O)[C@@]34[C@@H]5C[C@H]6[C@H](OC)[C@@H]5[C@](O)(C[C@@H]6OC)[C@](O)([C@@H](OC)[C@H]23)[C@@H]14` [GRANDIFLORINE]: the LD50 is 8.3 mg/kg.
